This is an account of results in US20100222282A1, “METHOD OF DIAGNOSIS AND METHOD OF TREATMENT” (ENTRESS AB, priority 2006, published 2010).

Molecules are shown by their SMILES.

The conditions of data set [1]: rats of the experimental groups. The source says:
(§1) The aim of this experiment was to study the relationship between the blood level of AKG and survival of elderly rats. Forty Sprague-Dawley rats randomly chosen (2-3 years old) from the Department of Cell & Organisms Biology in Lund University were used in the experiment. The rats were divided into four groups, 10 rats each, two control groups and two experiment groups. […] The mixtures were titrated with 0.01 M NaOH to correct the pH.
(§2) Blood samples were taken at the beginning of the experiment from all rats and blood AKG levels were estimated. Experimental time was 8 weeks and parameters as AKG blood levels and survival were monitored.

Data set [2] relates to Sprague-Dawley rats (2-3 years old). To be noted: experimental groups, 8 weeks.
From the text: as §1, §2

Regarding `O=C([O-])CCC(=O)C(=O)[O-].[Na+].[Na+]` [Na2AKG * 2H2O, sodium alpha-ketoglutarate], in data set [1], the “Blood levels of AKG after oral feeding” value was “over 0.5 μg/ml”. Further, the “Survival of rats with initially low blood AKG (under 0.1 μg/ml)” value in data set [2] is on record as “did survive the whole experiment”.
